The values that follow come from PubChem BioAssay (NCI).

Some test systems named below: MDA-MB-231 breast; TK-10 renal; DU-145 prostate; UACC-257 melanoma; HOP-62 NSCLC; SK-OV-3 ovarian; COLO 205 colon; SF-295 CNS; CAKI-1 renal; K-562 leukemia.
Experiment in all cases: NCI anticancer screen, dose series, 48 h

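Growth conditions: 96-well plates. Treatment: test compound, 48 hours, 5 concentrations. Analysis: linear interpolation between bracketing concentrations; unreached endpoints set to highest concentration. Here, GI50 denotes the concentration required for 50% inhibition of growth. The concentration for full growth arrest is given as TGI.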 A value given as a limit tells only on which side of the number the result lay.

With `CN(C)N1C(=O)SCC(c2ccccc2)(c2ccccc2)C1=O`, the TGI in the assay with MDA-MB-231 breast, with TK-10 renal, in the assay on DU-145 prostate, in the assay with UACC-257 melanoma, with HOP-62 NSCLC and in the assay on SK-OV-3 ovarian was more than 100 µM each time. For the same molecule, the TGI in the assay with COLO 205 colon, in the assay on SF-295 CNS, with CAKI-1 renal and with K-562 leukemia was more than 100 µM in each case.
For the molecule `COc1cc(C2=NN(C(C)=O)C(c3cc(OC)c(OC)c(OC)c3)C2)ccc1O` (stereo not given), the GI50 is 1.79 µM with MDA-MB-231 breast; 0.723 µM in the assay on TK-10 renal; 0.383 µM with DU-145 prostate; more than 93.6 µM with UACC-257 melanoma; 0.571 µM with HOP-62 NSCLC; 0.307 µM in the assay on SK-OV-3 ovarian. Besides, the GI50 in the assay with COLO 205 colon was 0.274 µM; with SF-295 CNS, 0.216 µM; in the assay on CAKI-1 renal it was 0.317 µM; with K-562 leukemia, 0.261 µM. The TGI was more than 100 µM in the assay on MDA-MB-231 breast; more than 100 µM in the assay on TK-10 renal; more than 33.9 µM with DU-145 prostate; more than 100 µM in the assay with UACC-257 melanoma; more than 100 µM with HOP-62 NSCLC; more than 100 µM with SK-OV-3 ovarian. Further, the TGI was 1.05 µM in the assay on COLO 205 colon, more than 100 µM in the assay on SF-295 CNS, more than 21.5 µM in the assay on CAKI-1 renal and more than 100 µM with K-562 leukemia.
As to `c1ccc(-c2nc3n(c2-c2ccc4c(c2)OCO4)CCC3)nc1`, the GI50 in the assay on MDA-MB-231 breast was 4.25 µM; with TK-10 renal, 1.41 µM; with DU-145 prostate, 7.22 µM; with UACC-257 melanoma it was 7.45 µM; with HOP-62 NSCLC, 4.93 µM; in the assay on SK-OV-3 ovarian it was 4.54 µM. The GI50 is 9.15 µM with COLO 205 colon, 4.8 µM in the assay on SF-295 CNS, 0.62 µM in the assay on CAKI-1 renal and 5.49 µM in the assay on K-562 leukemia. Moreover, the TGI with MDA-MB-231 breast is more than 25 µM; in the assay with TK-10 renal it was more than 23.6 µM; in the assay on DU-145 prostate it was more than 25 µM; in the assay with UACC-257 melanoma, 21.9 µM; in the assay with HOP-62 NSCLC, more than 17.6 µM; in the assay with SK-OV-3 ovarian it was 14.7 µM. For the same molecule, the TGI in the assay on COLO 205 colon was more than 25 µM; in the assay with SF-295 CNS it was 24.5 µM; in the assay on CAKI-1 renal, more than 25 µM; with K-562 leukemia, more than 25 µM.
On to `N=c1ccc2nc3ccc(N)cc3sc-2c1`, for which the GI50 was 3.56 µM with MDA-MB-231 breast; 11.7 µM in the assay on TK-10 renal; 16.8 µM with DU-145 prostate; 2.75 µM in the assay with UACC-257 melanoma; 5.06 µM in the assay on HOP-62 NSCLC; 15.6 µM in the assay with SK-OV-3 ovarian. Besides, the GI50 is 2.25 µM with COLO 205 colon, 4.28 µM in the assay on SF-295 CNS, 4.19 µM in the assay with CAKI-1 renal and 4.47 µM in the assay on K-562 leukemia. Moreover, the TGI turned out to be 20.3 µM in the assay on MDA-MB-231 breast; 35.5 µM in the assay with TK-10 renal; 40.8 µM in the assay with DU-145 prostate; 11.1 µM in the assay with UACC-257 melanoma; 49.4 µM in the assay with HOP-62 NSCLC; 63.5 µM with SK-OV-3 ovarian. Besides, the TGI is 12.5 µM with COLO 205 colon, 59.1 µM with SF-295 CNS, 20.3 µM in the assay on CAKI-1 renal and 74.9 µM in the assay with K-562 leukemia.
Turning to `C=C1C(=O)O[C@H]2[C@H]1CC/C(COC(=O)N[C@H]1C[C@H](O[C@H]3C[C@](O)(C(=O)CO)Cc4c(O)c5c(c(O)c43)C(=O)c3c(OC)cccc3C5=O)O[C@@H](C)[C@H]1O)=C\CC[C@@]1(C)O[C@@H]21`, the GI50 in the assay on MDA-MB-231 breast is 3.21 µM; in the assay with TK-10 renal it was 9 µM; with DU-145 prostate it was 12.1 µM; with UACC-257 melanoma it was 7.17 µM; in the assay with HOP-62 NSCLC, 22.7 µM; in the assay on SK-OV-3 ovarian it was more than 50 µM. Besides, the GI50 was 1.75 µM with COLO 205 colon, 45.3 µM with SF-295 CNS, 7.76 µM with CAKI-1 renal and 1.58 µM in the assay on K-562 leukemia. The TGI with MDA-MB-231 breast is 10.7 µM; in the assay with TK-10 renal, more than 50 µM; in the assay on DU-145 prostate, more than 50 µM; in the assay on UACC-257 melanoma, 13.7 µM; in the assay with HOP-62 NSCLC, more than 50 µM; in the assay with SK-OV-3 ovarian it was more than 50 µM. Besides, the TGI in the assay with COLO 205 colon is 6.98 µM; with SF-295 CNS it was more than 50 µM; in the assay with CAKI-1 renal, more than 50 µM; with K-562 leukemia, 11.4 µM.
`O=C(CC1(O)C(=O)Nc2ccc(F)cc21)c1ccc(C(=O)NCC2CCC3(CC2)OOC2(CCCCC2)OO3)cc1` (stereo not given): the GI50 in the assay with MDA-MB-231 breast is 9.92 µM; in the assay with TK-10 renal it was 2.03 µM; in the assay with DU-145 prostate it was 3.49 µM; with UACC-257 melanoma, 12.7 µM; with HOP-62 NSCLC it was 3.64 µM; with SK-OV-3 ovarian, 14.1 µM. The GI50 in the assay with COLO 205 colon is 5.37 µM; in the assay on SF-295 CNS, 3.69 µM; in the assay with CAKI-1 renal, 14 µM; in the assay with K-562 leukemia it was 3.49 µM. Moreover, the TGI with MDA-MB-231 breast came out at 29.9 µM; in the assay on TK-10 renal it was 4.36 µM; with DU-145 prostate it was 12.2 µM; with UACC-257 melanoma it was 29.9 µM; in the assay with HOP-62 NSCLC it was 12.3 µM; in the assay on SK-OV-3 ovarian, 31.9 µM. Further, the TGI in the assay on COLO 205 colon amounted to 22.9 µM; in the assay on SF-295 CNS, 16.2 µM; in the assay with CAKI-1 renal, 27.7 µM; with K-562 leukemia it was 21.9 µM.
`Cc1ccc(S(=O)(=O)c2nc(-c3ccccc3)oc2S(C)(=O)=O)cc1`: the GI50 in the assay on MDA-MB-231 breast was 1.87 µM; in the assay on TK-10 renal, 1.7 µM; in the assay with DU-145 prostate, 1.71 µM; with UACC-257 melanoma it was 3.01 µM; in the assay on HOP-62 NSCLC it was 13.3 µM; with SK-OV-3 ovarian, 15.9 µM. Further, the GI50 in the assay on COLO 205 colon is 1.7 µM; in the assay on SF-295 CNS, 12.2 µM; in the assay with CAKI-1 renal it was 1.8 µM; in the assay with K-562 leukemia, 1.59 µM. In addition, the TGI in the assay on MDA-MB-231 breast stood at 3.76 µM; in the assay with TK-10 renal, 3.1 µM; with DU-145 prostate, 3.15 µM; in the assay on UACC-257 melanoma it was 12.2 µM; with HOP-62 NSCLC it was 26.1 µM; in the assay on SK-OV-3 ovarian it was 29.3 µM. The TGI with COLO 205 colon turned out to be 3.21 µM; in the assay on SF-295 CNS, 24.6 µM; with CAKI-1 renal, 3.21 µM; in the assay with K-562 leukemia it was 4.3 µM.
